In brackets after ≈: the same amount, converted by molar mass. Structures can show the parent of a compound that is named as a salt. Blank lines part the entries; values can stand above or below the molecule they belong to.
What was measured:
Format in all cases: physicochemical
[1] = Solubility of Compound 1 citrate in pH 6.5 phosphate buffer with SLS
Experimental: Solubility of Compound 1 was determined in various percentages of sodium lauryl sulfate (SLS). 0.03% SLS was selected as the media for dissolution condition 3. Samples were filtered using a 0.2 μm nylon syringe filter, and analyzed by UPLC-UV utilizing the method parameters listed in Table 9.

[2] = Dissolution of drug in capsule in 0.01N HCl and 0.001N HCl at 37° C.; details: for Compound 1 released: 125 mg capsule, 37° C., 60 minutes
Experimental: To assess the feasibility of using Compound 1 in a capsule to support FIH study, a dissolution study with a capsule containing 125 mg Compound 1 free base monohydrate was performed in the media of 0.01N HCl and 0.001N HCl at 37° C. Capsule shell shrinkage was observed. […] Blend in capsule or other formulation approaches may be necessary.
A dissolution study for citrate salt in a capsule in 0.01N HCl was also carried out.

[3] = Solubility study (water, SGF, SIF, preclinical vehicle, bio-relevant media); details: for Solubility, Concentration: at 24 hours
Experimental: (§1) Solubility Study: Compound 1 free base pKa was determined to be 5.14. […] Solubility in the preclinical formulation, 0.5% CMC/0.25% Tween 80, was determined to be 0.18 mg/ml at pH 8.1.

[4] = Solid state chemical and physical stability of free base monohydrate
Experimental: Chemical Stability Study: Solid state stability of Compound 1 free base monohydrate was evaluated at 80° C. for 2 weeks and 40° C./75% RH, 50° C./75% RH and 60° C. for up to 5 weeks.
This dehydrate form converted back to monohydrate immediately when samples were exposed to room temperature and RH>30%. If RH is in the range of 5-30%, the dehydrate form may take 1-3 days to convert back to monohydrate.

pKa determination = experiment: pKa determination
Experimental: as §1

[5] = Solution and suspension stability; details: 37° C.
Experimental: The solution stability of Compound 1 free base in water, SGF (pH 1.3), SIF (pH 7.5), and 0.1N NaOH with and without light protection at 37° C. was tested.

[6] = Tablet dissolution in pH 2 phosphate buffer and pH 5 phosphate buffer with 0.1% sodium laureth sulfate; details: tablets, pH 5 phosphate buffer and 0.1% sodium laureth sulfate
[7] = Bulk and tap density and flow properties (Carr's Index, Hausner's Ratio)
Experimental: Needle-like particle shapes have poor powder flow and low densities. […] Reduced drug loadings (dilution of the poor flow component) improved flow characteristics of the resultant blend.
The 5 formulations covered drug loadings of 1.8-23.0% and 1-25 mg strengths. The bulk and tap densities for each formulation are included in Table 30.
Flow property scales for Carr's (Compressibility) Index and Hausner's Ratio are described in Table 37. The flow of the blends was assessed as very poor to passible.

dissolution compared with free base and citrate salt [6]: higher dissolution
SMILES: C[C@]1(C(N)=O)CC[C@@H](n2c(Nc3c(Cl)cc(Cl)cc3Cl)nc3cnc(N[C@@H]4CCOC[C@H]4F)nc32)CC1 (relative stereo) [HCl salt of Compound 1, cis-4-[2-{[(3S,4R)-3-fluorooxan-4-yl]amino}-8-(2,4,6-trichloroanilino)-9H-purin-9-yl]-1-methylcyclohexane-1-carboxamide]

Bulk Density [7]: 0.2 g/mL | Tap Density [7]: 0.38 g/mL | solubility ([3]; 0.5% CMC/0.25% Tween 80 (preclinical formulation), aqueous with cosolvent or surfactant or cyclodextrin, preclinical formulation 0.5% CMC/0.25% Tween 80, pH 8.1, read-out: solubility): 180 µg/mL (≈ 315 µM) | solubility ([3]; pH 4.5, aqueous buffer, read-out: solubility): ~250 µg/mL (≈ 438 µM) | solubility ([3]; simulated gastric fluid (SGF), simulated gastric fluid, simulated gastric fluids (SGF) (pH 1.9), read-out: solubility): 3500 µg/mL (≈ 6130 µM) | solubility ([3]; simulated gastric fluid, low pH (0.1 N HCl), read-out: solubility): ~1700 µg/mL (≈ 2980 µM) | solubility ([3]; simulated intestinal fluid (SIF), pH 7.3, fassgf or other biorelevant, read-out: solubility): 2 µg/mL (≈ 3.5 µM) | solubility ([3]; simulated intestinal fluids (SIF) (pH 7.3)): 2 µg/mL (≈ 3.5 µM) | solubility ([3]; water (pH 8.1), read-out: solubility): 3 µg/mL (≈ 5.26 µM) | pKa (pKa determination): ~5.1
SMILES: C[C@]1(C(N)=O)CC[C@@H](n2c(Nc3c(Cl)cc(Cl)cc3Cl)nc3cnc(N[C@@H]4CCOC[C@H]4F)nc32)CC1 [Compound 1, cis-4-[2-{[(3S,4R)-3-fluorooxan-4-yl]amino}-8-(2,4,6-trichloroanilino)-9H-purin-9-yl]-1-methylcyclohexane-1-carboxamide]

The next lines start with the molecule.

SMILES: C[C@]1(C(N)=O)CC[C@@H](n2c(Nc3c(Cl)cc(Cl)cc3Cl)nc3cnc(N[C@@H]4CCOC[C@H]4F)nc32)CC1 (relative stereo) [Compound 1 citrate, cis-4-[2-{[(3S,4R)-3-fluorooxan-4-yl]amino}-8-(2,4,6-trichloroanilino)-9H-purin-9-yl]-1-methylcyclohexane-1-carboxamide]
solubility ([1]; 0.01% SLS): 0.000 mg salt/mL | solubility ([1]; 0.02% SLS): 0.001 mg salt/mL | solubility ([1]; 0.03% SLS): 0.054 mg salt/mL | solubility ([1]; 0.05% SLS): 0.336 mg salt/mL | solubility ([1]; 0.1% SLS): 0.807 mg salt/mL | dissolution profile compared to freebase monohydrate ([2]; capsule in 0.01N HCl): better dissolution profile

SMILES: C[C@]1(C(N)=O)CC[C@@H](n2c(Nc3c(Cl)cc(Cl)cc3Cl)nc3cnc(N[C@@H]4CCOC[C@H]4F)nc32)CC1 (relative stereo) [Compound 1 free base monohydrate, cis-4-[2-{[(3S,4R)-3-fluorooxan-4-yl]amino}-8-(2,4,6-trichloroanilino)-9H-purin-9-yl]-1-methylcyclohexane-1-carboxamide]
Solubility, Concentration ([3]; FaSSGF): 2810 µg/mL | Solubility, Concentration ([3]; FaSSIF): 260 µg/mL | Solubility, Concentration ([3]; FeSSGF): 4 µg/mL | Solubility, Concentration ([3]; FeSSIF): 2070 µg/mL | pH @ 24 hr ([3]; solubility sample in FaSSGF): 1.84 | pH @ 24 hr ([3]; solubility sample in FaSSIF): 6.48 | pH @ 24 hr ([3]; solubility sample in FeSSGF): 6.31 | pH @ 24 hr ([3]; solubility sample in FeSSIF): 4.94 | solid state chemical stability ([4]; 80° C. for 2 weeks, 40° C./75% RH, 50° C./75% RH and 60° C. up to 5 weeks): chemically relatively stable | time for the dehydrate form to convert back to monohydrate ([4]; RH in the range of 5-30%): 1 to 3 days | physical stability ([4]; heated at 60 and 80° C.): lost water and converted to a dehydrate form | Compound 1 released ([2]; 0.001N HCl): 10% | Compound 1 released ([2]; 0.01N HCl): About 80%

SMILES: C[C@]1(C(N)=O)CC[C@@H](n2c(Nc3c(Cl)cc(Cl)cc3Cl)nc3cnc(N[C@@H]4CCOC[C@H]4F)nc32)CC1 (relative stereo) [Compound 1 free base, cis-4-[2-{[(3S,4R)-3-fluorooxan-4-yl]amino}-8-(2,4,6-trichloroanilino)-9H-purin-9-yl]-1-methylcyclohexane-1-carboxamide]
pKa (pKa determination): 5.14 | solution stability, remaining ([5]; 0.1N NaOH without light protection, day 1): 88% | solution stability, remaining ([5]; 0.1N NaOH without light protection, day 4): 61% | solution stability, remaining ([5]; water, SGF (pH 1.3), SIF (pH 7.5), 0.1N NaOH, 4 days, all except 0.1N NaOH without light protection): > 95%
